# Source: patent publication US11779019B2, “Composition made from polyol(s) and sterol(s) for use in the agricultural field” (ELICIT PLANT, priority 2017, dated 2023)
# System: parsley (Petroselinum crispum)
# Assay: Resistance of parsley to flooding (abiotic) stress after watering with sample solutions
# Type: in vivo
# Conditions: potted parsley, watering every three days with 40 ml of 97% water+3% of the sample, observed after 18 days, vs water control
# Description: The effectiveness of each combination on the plants tolerance to abiotic stress is analyzed.
# Before the treatment all the leaves of the parsley plants are cut off.
# This abundant watering is intended to mimic a flooding stress.
# Each batch consists of four pots.
# After 18 days the plants are observed, and pictures are taken.
smiles,measurement,value
"CC[C@H](CC[C@@H](C)[C@H]1CC[C@H]2[C@@H]3CC=C4C[C@@H](O)CC[C@]4(C)[C@H]3CC[C@]12C)C(C)C [A, beta-sitosterol]",effect on the plants' tolerance to stress (flooding stress),"All the samples, except the beta sitosterol alone (sample A), show a positive effect"
